Measured values from PMC10762078, “Role of UPF1-LIN28A interaction during early differentiation of pluripotent stem cells” (Nature Communications, 2024).
“Also recorded” adds a separate entry of the source. Ends that are not written are not given here.

Tests used:
[1] = tested on: nonsense-mediated mRNA decay (NMD); assay: NMD reporter (Gl, GPx1) mRNA by RT-qPCR in LIN28A-expressing HeLa cells with CPP-peptides (Fig. 5c); type: cell-based; settings: for relative GPx1 mRNA level / relative Gl mRNA level: normalised to MUP
Protocol: Fig. 5 CPP-conjugated peptide inhibits UPF1-LIN28A interaction. a Schematic representation of designated CPP-conjugated peptides. The amino acid sequences and positions of each peptide on UPF1 are indicated. CPP-P1 and -P2 served as negative controls. CPP-FITC was used to evaluate cell-penetrating ability in cells. b 293T cell lysates co-transfected with pCMV-MYC-UPF1 and pGEX-GST-LIN28A and incubated with the indicated CPP-conjugated peptides were employed for GST pull-down. c Relative levels of NMD reporters were measured in LIN28A-expressing HeLa cells incubated with the indicated CPP-conjugated peptides. mRNA level was normalised to that of MUP mRNA. d PLA was performed using LIN28A-overexpressing HeLa cells and hPSCs in the presence of indicated peptides. Red: fluorophore in amplified DNA circle, and Blue: DAPI stained nucleus. Scale bars, 50 μm. Unpaired Student’s t-test was used. Data are presented as mean values ± SEM. All statistical test used were two-sided. The minimum number of independent biological replicate experiments was b–d n = 3. The experiments were conducted three times, each iteration producing consistent results.
(§1) For CPP-conjugated peptide delivery, HeLa, 293T, and PA-1 cells were incubated with CPP-conjugated peptides or CPP-FITC at 2 μM in DMEM with 10% FBS for 12 h a day before cell harvest. hPSCs were treated with CPP-conjugated peptides at 10 μM in mTeSR Plus Medium, and the peptide-containing medium was changed every day over 10 days. The ROCK inhibitor (Tocris Bioscience, Y-27632) treated-hPSCs were dissociated into single cells using Accutase (Merck, SCR005) and differentiated into ectoderm, mesoderm, and endoderm using the STEMdiff Trilineage Differentiation Kit ([…] Technologies, 05230) following the manufacturer’s protocol. Differentiated cells treated with CPP-conjugated peptides were analysed at 0, 3, and 5 days for ectoderm and endoderm, and at 0, 3, and 4 days for mesoderm.
Total RNA purification and RT-qPCR
Total RNA was extracted using TRIzol reagent (Invitrogen) according to the manufacturer’s protocol. After extraction, RNA was incubated with RQ1 RNase-Free DNase (Promega) to remove the exogenous and endogenous DNA.
cDNA was synthesised using RevertAid Reverse Transcriptase (Thermo Fisher Scientific, EP0441) with synthesised random hexamer (Macrogen) for total RNA or stem-loop primers for miRNA. For RT-qPCR reactions, the SensiFAST SYBR No-ROX kit (Meridian Bioscience) was used according to the manufacturer’s protocol. All data analysis and visualisation were conducted using R 3.6.1 [www.r-project.org] or GraphPad Prism 10. RT primers for miRNA and RT-qPCR primer sequences are provided in Supplementary Data 6.
Fold change in NMD efficiency represents the ratio of test NMD (PTC-containing transcript) to control NMD (PTC-free transcript), where NMD is the relative abundance of PTC-containing mRNA divided by the relative abundance of PTC-free mRNA. The abundance of MUP mRNA was used as the reference.

p-UPF1 (Ser1096) = assay: Western blot of p-UPF1 (Ser1096) in CPP-peptide-treated hPSCs; type: cell-based, human; settings: for p-UPF1 (Ser1096)/Calnexin, mean: relative to CPP-P1 = 100, n = 3
Protocol: as §1
Protein samples were loaded for electrophoresis on sodium dodecyl sulphate (SDS) polyacrylamide gels, followed by Coomassie blue staining or transferred to nitrocellulose membranes (Cytiva) for WB. After blocking with 5% non-fat milk (Cellconic) in Tris-buffered saline with Tween-20 for 30 min at room temperature, the membranes were incubated with the following primary antibodies: anti-FLAG (GenScript, A00187; 1:2000), UPF1 (Cell Signaling Technology, 12040; 1:4000), UPF2 (Cell Signaling Technology, 11875; 1:2000), eIF4E (Cell Signaling Technology, 2067; 1:2000), β-actin (Sigma-Aldrich, A2228; 1:4000), GST (Cytiva, 27-4577-01; 1:2000), MYC (Calbiochem, OP10; 1:2000), Calnexin (Cell Signaling Technology, 2679; 1:4000), LIN28A (Cell Signaling Technology, 3978; 1:2000), pSer1096 phosphorylated UPF1 (1:2000)[58], or p-Thr28 phosphorylated UPF1 (ImmuQuest, IQ653; 1:2000). Primary antibodies were incubated overnight at 4 °C and then washed thrice with TBS-T, followed by incubation with secondary antibodies: Goat anti-Rabbit IgG (Invitrogen, 31460; 1:4000), Goat anti-Mouse IgG (Invitrogen, 31430; 1:4000), or Horse anti-Goat IgG (Vector Laboratories, PI-9500; 1:4000) for 1 h at room temperature. For pull-downed protein detection, all primary and secondary antibodies were diluted at 1:10,000. The blots were imaged using ChemiDoc XRS+ System (Bio-Rad) and the greyscale intensity values were quantified using Image Lab 3.0 software (Bio-Rad).
DAPI FITC Merge DAPI FITC Merge CHA15 H9 Pro2 H9
No peptide CPP-FITC Calnexin
For 2-day treatm ent For 4-day treatm ent […]
Student’s t-test was used. Data are presented as m ean values ± S.D (b) and mean values ± SEM (c and d). All statistical test us ed wer e two-s ided. T he m inim um num ber of independent biological replicate experim ents was a, b, and d n = 3, c n = 5. T he experim ents wer e conducted three tim es, each iteration producing consistent results. […]

[2] = LIN28A-expressing HeLa, CPP-peptide, replicate set1
[3] = LIN28A-expressing HeLa, CPP-peptide, replicate set2
[4] = LIN28A-expressing HeLa, CPP-peptide, replicate set3

Row | Substance | increased Gl Ter and GPx1 Ter levels caused by LIN28A ([1]; LIN28A-expressing HeLa, 2 μM, 12 h) | phosphorylated UPF1 (p-UPF1 (Ser1096); CHA15 and Pro2 cells, 10 μM) | p-UPF1 levels after longer treatment (p-UPF1 (Ser1096); H9, 4-day treatment) | p-UPF1 levels (p-UPF1 (Ser1096); H9 cells, short treatment, 10 μM) | relative GPx1 mRNA level [1, 2] | relative Gl mRNA level [1, 2] | relative GPx1 mRNA level [1, 3] | relative Gl mRNA level [1, 3] | relative GPx1 mRNA level [1, 4] | relative Gl mRNA level [1, 4] | GPx1 mRNA, mean ([1]; LIN28A-expressing HeLa, CPP-peptide, mean in t-test output, n = 3) | GPx1 mRNA, difference between means (C - B) ± SEM ([1]; LIN+P8 minus LIN+P1) | Gl mRNA, difference between means (C - B) ± SEM ([1]; LIN+P8 minus LIN+P1) | p-UPF1 (Ser1096)/Calnexin, mean (p-UPF1 (Ser1096); CHA15, 2-day treatment) [%] | p-UPF1 (Ser1096)/Calnexin, mean (p-UPF1 (Ser1096); H9, 2-day treatment) [%] | p-UPF1 (Ser1096)/Calnexin, mean (p-UPF1 (Ser1096); H9, 4-day treatment) [%] | p-UPF1 (Ser1096)/Calnexin, mean (p-UPF1 (Ser1096); Pro2, 2-day treatment) [%] | relative Gl mRNA level ([1]; FLAG control (no LIN28A) HeLa, CPP-peptide, replicate set2) | relative GPx1 mRNA level ([1]; FLAG control (no LIN28A) HeLa, CPP-peptide, replicate set3)
1 | KKKWCRKKKSSADEKRYRALKRTAERELLMNA [CPP-P8, CPP conjugated to P8] | efficiently reversed by CPP-P8 | increased phosphorylated UPF1 in CHA15 and Pro2 cells; also recorded: upregulation of p-UPF1 in CHA15 and Pro2 cells | upregulates the levels of p-UPF1 | did not elicit a corresponding increase in p-UPF1 levels in H9 cells | – | – | – | – | – | – | – | – | – | – | – | – | – | – | –
2 | KKKWCRKKKSSADEKRYRALKRTAERELLMNA [P8] | – | – | – | – | 1.006 | 1.305 | 1.229 | 0.7968 | 0.4585 | 1.128 | 0.2385 | -0.4015 ± 0.06473 | -1.443 ± 0.3024 | 203 | 91 | 226 | 244 | – | –
3 | N-QKLDQKELQLEPM-C [P1, reference compound] | – | – | – | – | 2.435 | 3.179 | 2.54 | 5.571 | 2.254 | 4.729 | – | – | – | 100 | 100 | 100 | 100 | 1.21 | 1.026
